Test results reported in patent US20240374879A1, “METHODS AND COMPOSITIONS TO REDUCE CELLULAR DEPOSITION, AND HYDROCEPHALUS SHUNT FAILURE” (Wayne State University, priority 2021, published 2024).

Assays:
A1 reactive astrocytes = experiment: A1 reactive astrocyte attachment on PDMS coated plates (targeted drug delivery); assay type: cell-based, mouse; details: 30 ng/ml, 48 h
Method: Purification of astrocytes by immunopanning: Astrocytes were purified by immunopanning from post-natal day (P) 5 mouse brains and cultured as previously described (Foo et al., Neuron. 71(5):799-811, 2011). Cerebral cortices were dissected and enzymatically digested using papain at 37° C. and 10% CO2. Tissue was then mechanically triturated with a serological pipette at RT to generate a single-cell suspension. The suspension was filtered and negatively panned for microglia/macrophage cells (CD45), oligodendrocyte progenitor cells (04 hybridoma), and endothelial cells (L1) followed by positive panning for astrocyte cells (ITGB5). Astrocytes were cultured in defined, serum-free medium containing 50% neurobasal, 50% DMEM, 100 U/mL penicillin, 100 μg/mL streptomycin, 1 mM sodium pyruvate, 292 μg/mL L-glutamine, 1×SATO, 5 μg/mL of N-acetyl cysteine, and 5 ng/mL HBEGF.
Targeted drug delivery: A1 reactive astrocytes were generated by culturing the purified astrocytes on PDMS coated tissue culture plates and then treating for 24 h with IL-1α (3 ng/ml, Sigma, 13901), TNF-α (30 ng/ml, Cell Signaling Technology, 8902SF), and C1q (400 ng/ml, MyBioSource, MBS143105). […]

A2 reactive astrocytes = experiment: A2 reactive astrocyte attachment on PDMS coated plates (targeted drug delivery); assay type: cell-based, mouse; details: 30 ng/ml, 48 h; FIG. 5B

In the case of TGF-β, the “A1 astrocyte reactive state” value (A1 reactive astrocytes) is reported as “reset A1 astrocytes to a non-reactive state”, the “attachment of A1 astrocytes on PDMS coated surfaces” value (A1 reactive astrocytes; FIG. 5A) is reported as “significantly reducing” and the “attachment of A2 astrocytes on PDMS coated surfaces” value (A2 reactive astrocytes) is reported as “did not induce”.
